The results in this text go back to patent US9708301B2, “Crystalline forms of afatinib monomaleate, preparation methods and pharmaceutical compositions thereof” (priority 2015, dated 2017).

Common to all, as to format: physicochemical
Data set [1] can be described thus: Hygroscopicity of prior-art forms (researches by the present inventors).
Data set [2] is described as follows: Dynamic vapour sorption (DVS) isothermal adsorption. Conditions: relative humidity 10%-80%. On the procedure: Dynamic vapour sorption (DVS) data is collected using TA Instruments Q5000 TGA, the instrument control software is Thermal Advantage and the analytical software is Universal Analysis. Usually, 1-10 mg of the specimen is placed in a platinum pan, weight changes of the specimen are recorded by TA software within the process of the relative humidity change from 10% to 80% to 10%. Depending on specific situations, different sorption and desorption procedures may be used. An isothermal adsorption curve can be generated by the procession of software.

Data set [3] can be described thus: Solubility in pure water (water added progressively until the sample completely dissolved). Particulars: 25° C. (room temperature). On the procedure: Take 5 mg of the crystalline form of Afatinib dimaleate in the prior art prepared in preparation example 1 and the crystalline Form N of Afatinib monomaleate prepared in example 1 as the sample respectively, pure water was added into each sample progressively at 25° C. until the sample completely dissolved, then calculate the solubility of the sample according to the weight of the sample and water.

The structures appear in SMILES notation.

Consider `CN(C)C/C=C/C(=O)Nc1cc2c(Nc3ccc(F)c(Cl)c3)ncnc2cc1O[C@H]1CCOC1` [Form B of Afatinib dimaleate, Afatinib dimaleate], for which the hygroscopicity entry in data set [1] is “serious hygroscopicity issues”.

Usually solubility stands for how much of the substance goes into solution per volume. A low value points to a poorly soluble substance. Consider `CN(C)C/C=C/C(=O)Nc1cc2c(Nc3ccc(F)c(Cl)c3)ncnc2cc1O[C@H]1CCOC1` [Afatinib dimaleate], for which, in data set [2] (listed as Preparation Example 1), the “weight change of the salt within the relative humidity range of 10%-80%” value is given as 2.6%. The molecule also showed a solubility in data set [3] (listed as crystalline form of Afatinib dimaleate in the prior art) of 7.5 mg/mL.

On to `CN(C)C/C=C/C(=O)Nc1cc2c(Nc3ccc(F)c(Cl)c3)ncnc2cc1O[C@H]1CCOC1` [Afatinib monomaleate], for which the “weight change of the salt within the relative humidity range of 10%-80%” value in data set [2] (listed as Example 1) is given as 2.1%. The molecule further showed a solubility in data set [3] (listed as crystalline Form N of Afatinib monomaleate) of 126.9 mg/mL.
